{
  "source": "paper PMC10301922",
  "about": "“Anti-Oxidant, Anti-Mutagenic Activity and Safety Evaluation of Antrocin” (Toxics, 2023)",
  "key": {"CHO-K1 cells": {"tested_on": "CHO-K1 cells", "procedure": "A chromosomal aberration test was performed to evaluate the potential for antrocin to induce structural chromosomal abnormalities in Chinese hamster ovary cells (CHO-K1 cells). The test followed the protocol in Genetic Toxicology Testing: A Laboratory Manual. CHO-K1 cells were obtained from the Bioresource Collection and Research Center (BCRC), and were cultured in Ham F-12 medium with 10% fetal bovine serum and 0.1% Penicillin–Streptomycin at 5% CO2 in a 37 °C incubator. […] Three experimental conditions were conducted: 3 h with and without S9 (short term), and 19 h without S9 (long term). […] CHO-K1 cells were cultured in 25T flasks, incubated with samples for 3 or 19 h with and without S9, and harvested at the time of 1.5 cell cycle lengths (about 21 h). Two hours before harvesting, 100 μL colcemid (10 μg/mL) was added to disrupt cell mitosis. Collected cells were then treated with 0.6% KCl solution and fixed with acetic acid–methanol (1:3) solution. After fixation, cells were stained with Diff-Quik on a glass slide. A total of 300 cells in metaphase per group were observed, and the number of chromosomal aberrations was recorded. The chromosomal aberration rate (%) was calculated using the following formula: (number of cells with aberrations/total number of cells examined) × 100. A Student’s t-test was used for statistical analysis, and a significant increase (p < 0.05) compared to the negative control indicated a positive response."}, "[1]": {"assay": "Trolox equivalent antioxidant capacity (TEAC)", "conditions": "10 mg/mL antrocin", "procedure": "The following methodology describes the TEAC assay: Add 40 μL of sample to a 96-well plate and adjust the volume to 100 μL with ddH2O. The absorbance of the sample should be within the linear range of the standard curve (0–20 nmol/well). The detection limit of this assay is approximately 0.1 nmol (or 1 µM) Trolox per well. For Trolox Standard Curve Preparation, dissolve lyophilized Trolox Standard in 20 µL of pure DMSO, add 980 µL of distilled water and mix well to generate a 1 mM solution, then aliquot the solution and store it at −20 °C for stable storage for 4 months. Add 0, 4, 8, 12, 16, 20 µL of Trolox standard to each well. Adjust the total volume to 100 µL with ddH2O to obtain 0, 4, 8, 12, 16, 20 nmol of Trolox standards, respectively. For preparation of working solutions, dilute 1 part of Cu^2+ reagent with 49 parts of Assay Diluent, and dilute enough working solution for detection. Add 100 µL of Cu^2+ working solution to standard wells and sample wells. After capping the plate and reacting at room temperature for 1.5 h, measure the absorbance at 570 nm. Draw a Trolox standard curve by subtracting the 0 nmol standard reading from all standard curve readings. […]\n• Sa = the amount of sample (in nmol) read from the standard curve. • Sv = the undiluted sample volume added to the well."}, "[2]": {"assay": "Ferric reducing ability of plasma (FRAP)", "conditions": "10 mg/mL antrocin", "procedure": "The following methodology describes the FRAP assay: Add 10 µL of sample to a 96-well plate. For each sample, a parallel sample was prepared as a sample background control. Add 4 µL of FRAP Positive Control to each well and make up to 10 µL with FRAP Assay Buffer. For standard curve preparation, add 0, 2, 4, 6, 8, and 10 µL of a 2 mM ferrous standard solution to the wells of a 96-well plate to generate 0, 4, 8, 12, 16, and 20 nmol/well of ferrous iron, respectively. Adjust the volume to 10 µL/well with FRAP Assay Buffer. Mix sufficient reagents for the number of tests to be performed, including: Add 190 µL of Reaction Mix to the wells of the standard curve, positive control, and test samples. Add 190 µL Background Control Mix to the sample background control wells and mix well. After 60 min of reaction at 37 °C, measure the absorbance at 594 nm. Subtract 0 nmol standard readings from all standard curve readings to draw a ferrous standard curve. If the sample background control is significant, subtract the background control reading from its paired sample reading. Apply the sample OD value to the ferrous standard curve to obtain the reduced ferrous ion B nmol generated during the reaction.\nUse the following calculation to determine the mM ferrous equivalence of the sample.\nSample FRAP or mM ferrous equivalents = B × D/V = nmol/µL(2) […]"}, "[3]": {"tested_on": "Salmonella typhimurium TA1535", "assay": "Ames test (plate incorporation), TA1535"}},
  "note": "Read-outs that look alike come from different tables or passages of the source.",
  "data": [
    {"smiles": "C=C1CC[C@H]2C(C)(C)CCC[C@@]23C(=O)OC[C@@H]13", "note": "[Antrocin, (-)-Antrocin]", "values": [
      {"measurement": "chromosomal aberration frequency versus negative control", "setting": "CHO-K1 cells; 25-100 μg/mL, short-term with S9, short-term without S9, long-term exposure", "value": "no significant differences"},
      {"measurement": "Frequency of Chromosomal Aberration (%)", "setting": "CHO-K1 cells; with S9 (3 h), 25 μg/mL", "value": "5.3 ± 1.2", "unit": "%"},
      {"measurement": "Total Aberrations", "setting": "CHO-K1 cells; with S9 (3 h), 25 μg/mL", "value": "16/300"},
      {"measurement": "Frequency of Chromosomal Aberration (%)", "setting": "CHO-K1 cells; with S9 (3 h), 50 μg/mL", "value": "6.3 ± 2.1", "unit": "%"},
      {"measurement": "Total Aberrations", "setting": "CHO-K1 cells; with S9 (3 h), 50 μg/mL", "value": "19/300"},
      {"measurement": "Frequency of Chromosomal Aberration (%)", "setting": "CHO-K1 cells; with S9 (3 h), 100 μg/mL", "value": "6.3 ± 2.1", "unit": "%"},
      {"measurement": "Total Aberrations", "setting": "CHO-K1 cells; with S9 (3 h), 100 μg/mL", "value": "19/300"},
      {"measurement": "Frequency of Chromosomal Aberration (%)", "setting": "CHO-K1 cells; without S9 (3 h), 25 μg/mL", "value": "4.3 ± 3.8", "unit": "%"},
      {"measurement": "Total Aberrations", "setting": "CHO-K1 cells; without S9 (3 h), 25 μg/mL", "value": "13/300"},
      {"measurement": "Frequency of Chromosomal Aberration (%)", "setting": "CHO-K1 cells; without S9 (3 h), 50 μg/mL", "value": "4.3 ± 2.9", "unit": "%"},
      {"measurement": "Total Aberrations", "setting": "CHO-K1 cells; without S9 (3 h), 50 μg/mL", "value": "13/300"},
      {"measurement": "Frequency of Chromosomal Aberration (%)", "setting": "CHO-K1 cells; without S9 (3 h), 100 μg/mL", "value": "5.3 ± 2.1", "unit": "%"},
      {"measurement": "Total Aberrations", "setting": "CHO-K1 cells; without S9 (3 h), 100 μg/mL", "value": "16/300"},
      {"measurement": "Frequency of Chromosomal Aberration (%)", "setting": "CHO-K1 cells; without S9 (19 h), 25 μg/mL", "value": "9.3 ± 1.2", "unit": "%"},
      {"measurement": "Total Aberrations", "setting": "CHO-K1 cells; without S9 (19 h), 25 μg/mL", "value": "28/300"},
      {"measurement": "Frequency of Chromosomal Aberration (%)", "setting": "CHO-K1 cells; without S9 (19 h), 50 μg/mL", "value": "10.3 ± 2.5", "unit": "%"},
      {"measurement": "Total Aberrations", "setting": "CHO-K1 cells; without S9 (19 h), 50 μg/mL", "value": "31/300"},
      {"measurement": "Frequency of Chromosomal Aberration (%)", "setting": "CHO-K1 cells; without S9 (19 h), 100 μg/mL", "value": "7.3 ± 1.5", "unit": "%"},
      {"measurement": "Total Aberrations", "setting": "CHO-K1 cells; without S9 (19 h), 100 μg/mL", "value": "22/300"},
      {"measurement": "Trolox Equivalent Antioxidant Capacity (mM Trolox Equivalents)", "setting": "[1]", "value": "0.508 ± 0.003", "unit": "mM Trolox equivalents"},
      {"measurement": "Ferric Reducing Ability of Plasma (mM Ferrous Equivalent)", "setting": "[2]", "value": "0.218 ± 0.004", "unit": "mM Ferrous Equivalent"},
      {"measurement": "Number of Revertant", "setting": "[3]; TA1535, with S9, 0.003125 mg/plate", "value": "17.3 ± 0.5", "unit": "Colony/Plate"},
      {"measurement": "Number of Revertant", "setting": "[3]; TA1535, with S9, 0.00625 mg/plate", "value": "15.7 ± 6.1", "unit": "Colony/Plate"},
      {"measurement": "Number of Revertant", "setting": "[3]; TA1535, with S9, 0.025 mg/plate", "value": "18.0 ± 1.6", "unit": "Colony/Plate"},
      {"measurement": "Number of Revertant", "setting": "[3]; TA1535, with S9, 0.05 mg/plate", "value": "14.0 ± 2.4", "unit": "Colony/Plate"},
      {"measurement": "Number of Revertant", "setting": "[3]; TA1535, without S9, 0.003125 mg/plate", "value": "11.7 ± 2.4", "unit": "Colony/Plate"},
      {"measurement": "Number of Revertant", "setting": "[3]; TA1535, without S9, 0.00625 mg/plate", "value": "14.7 ± 4.0", "unit": "Colony/Plate"},
      {"measurement": "Number of Revertant", "setting": "[3]; TA1535, without S9, 0.025 mg/plate", "value": "10.7 ± 1.2", "unit": "Colony/Plate"},
      {"measurement": "Number of Revertant", "setting": "[3]; TA1535, without S9, 0.05 mg/plate", "value": "12.7 ± 2.9", "unit": "Colony/Plate"}
    ]}
  ]
}
